Converted amounts (≈) assume the structure as drawn. “And” between values parts separate entries of the source, which are not always exact repeats. Equal entries are not always repeated. “Also recorded” adds a separate entry of the source. Where two headings read alike, the source gives them in different places.
How the values were obtained:
NOR-1 = target: T1, NOR-1 (Homo sapiens, UniProt Q92570); assay: Gal4-NOR-1 hybrid reporter gene assay; format: cell-based; details: HEK293T
T1 construct: chimeric receptors composed of the Gal4-DBD and the hinge region and LBD; expressed in transfected cells; host or cells: HEK293T
T1 sequence (Q92570 394-623 limits assumed): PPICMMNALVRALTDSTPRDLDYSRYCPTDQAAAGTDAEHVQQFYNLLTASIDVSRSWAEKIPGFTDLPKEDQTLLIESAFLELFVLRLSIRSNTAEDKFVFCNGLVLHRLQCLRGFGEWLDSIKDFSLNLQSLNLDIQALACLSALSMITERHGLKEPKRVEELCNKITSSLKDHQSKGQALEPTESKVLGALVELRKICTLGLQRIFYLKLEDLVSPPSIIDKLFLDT
Protocol: Nurr1 modulation was determined in a Gal4 hybrid reporter gene assay in HEK293T cells (German Collection of Microorganisms and Cell Culture GmbH, DSMZ) using pFR-Luc (Stratagene, La Jolla, CA, USA; reporter), pRL-SV40 (Promega, Madison, WI, USA; internal control) and pFA-CMV-hNurr1-LBD[14], coding for the hinge region and ligand binding domain of the canonical isoform of human Nurr1. […] After 24 h, the medium was changed to Opti-MEM without supplements, and cells were transiently transfected using Lipofectamine LTX reagent (Invitrogen, Carlsbad, CA, USA) according to the manufacturer’s protocol. Five hours after transfection, cells were incubated with the test compounds in Opti-MEM supplemented with penicillin (100 U/mL), streptomycin (100 μg/mL), and 0.1% DMSO for 16 h before luciferase activity was measured using the Dual-Glo Luciferase Assay System (Promega) according to the manufacturer’s protocol on a Tecan Spark luminometer (Tecan Deutschland GmbH, Crailsheim, Germany). Firefly luminescence was divided by Renilla luminescence and multiplied by 1000 resulting in relative light units (RLU) to normalize for transfection efficiency and cell growth. Fold activation was obtained by dividing the mean RLU of the test compound by the mean RLU of the untreated control. All samples were tested in at least three biologically independent experiments in duplicates. For dose-response curve fitting and calculation of EC50 values, the equation “[Agonist] vs. response -- Variable slope (four parameters)” was used in GraphPad Prism (version 7.00, GraphPad Software, La Jolla, CA, USA). Selectivity profiling was performed with identical procedures using pFA-CMV-Nur77-LBD[14], pFA-CMV-NOR-1-LBD[14], pFA-CMV-THRα-LBD[51], pFA-CMV-RARα-LBD[52], pFA-CMV-PPARα-LBD[53], pFA-CMV-PPARγ-LBD[53], pFA-CMV-PPARδ-LBD[53], pFA-CMV-LXRα-LBD[54], pFA-CMV-FXR-LBD[55] and pFA-CMV-hRXRα-LBD[56].

[1] = test system: Nurr1-regulated TH, VMAT2 and SOD2 mRNA in astrocytes (T98G); assay: Nurr1-regulated gene expression in T98G astrocytes (qPCR); format: cell-based, human; details: vs DMSO control
HEK293T cells = assay: WST-8 cytotoxicity assay, HEK293T; format: cell-based, human; details: for toxicity (WST-8): HEK293T cells, 24 h
Protocol: Each sample was prepared in four biologically independent repeats. After incubation for 24 h, the medium was refreshed and 10% water-soluble tetrazolinum salt (Cell Counting Kit-8, MedChemExpress) was added to assess metabolic activity. After 4 h, absorbance was measured at 450 nm using a Tecan Spark Cyto instrument (Tecan).

[2] = target: T2, Nurr1-RXR heterodimer (DR5) (Homo sapiens, UniProt P43354); assay: Full-length Nurr1 reporter gene assay (DR5); format: cell-based
T2 construct: The full-length human nuclear receptor Nurr1 (pcDNA3.1-hNurr1-NE; Addgene plasmid #102363); host or cells: HEK293T
Protocol: Activation of full-length human Nurr1 was studied in transiently transfected HEK293T cells using the reporter plasmids pFR-Luc-NBRE[14], pFR-Luc-POMC[14] or pFR-Luc-DR5[14] each containing one copy of the respective human Nurr1 response element NBRE Nl3, NurRE, or DR5. […] After 24 h, the medium was changed to Opti-MEM without supplements, and cells were transiently transfected using Lipofectamine LTX reagent (Invitrogen) according to the manufacturer’s protocol. Five hours after transfection, cells were incubated with the test compounds in Opti-MEM supplemented with penicillin (100 U/mL), streptomycin (100 μg/mL) and 0.1% DMSO for 16 h before luciferase activity was measured using the Dual-Glo Luciferase Assay System (Promega) according to the manufacturer’s protocol on a Tecan Spark luminometer (Tecan Deutschland GmbH). Firefly luminescence was divided by Renilla luminescence and multiplied by 1000 resulting in relative light units (RLU) to normalize for transfection efficiency and cell growth. Fold activation was obtained by dividing the mean RLU of the test compound by the mean RLU of the untreated control. All samples were tested in at least three biologically independent experiments in duplicates. For dose-response curve fitting and calculation of EC50 values, the equation “[Agonist] vs. response -- Variable slope (four parameters)” was used in GraphPad Prism (version 7.00, GraphPad Software).

Nurr1 LBD = target: T3, Nurr1 LBD (Homo sapiens, UniProt P43354); assay: Isothermal titration calorimetry (ITC); format: binding; details: 25 °C
T3 construct: Nurr1 LBD protein (5–30 µM, expressed as described previously[21]); made in house
Protocol: ITC experiments were conducted on an Affinity ITC instrument (TA Instruments, New Castle, DE) at 25 °C with a stirring rate of 75 rpm. Nurr1 LBD protein (5–30 µM, expressed as described previously[21]) in buffer (20 mM Tris pH 7.5, 100 mM NaCl, 5% glycerol) containing 1–4% DMSO was titrated with the test compounds (30–150 μM in the same buffer containing 1-4% DMSO) in 26 injections (1 × 1 µL, 25 × 3-4 μL) with an injection interval of 120-150 s. As control experiments, the test compounds were titrated to the buffer, and the buffer was titrated to the Nurr1 LBD protein under otherwise identical conditions. Results were analyzed using NanoAnalyze software (version 3.11.0, TA Instruments, New Castle, DE) with independent binding models.

Aqueous solubility = format: physicochemical; details: water, 25 °C, read-out: aq. solubility
Protocol: The mixture was agitated in a VWR Thermal Shake lite (VWR International GmbH, Darmstadt, Germany) for 24 h at 600 rpm and a constant temperature of 25 °C. The supersaturated mixtures were subsequently centrifuged at 23.300 rpm for 15 min (25 °C). Part of the supernatant was taken off for quantification by UV absorbance at 312 nm with external calibration. The external calibration samples contained 1% DMSO and the test samples were spiked with DMSO to 1% concentration right before the measurement. Absorbance was measured with a Tecan Spark luminometer (Tecan Deutschland GmbH, Crailsheim, Germany). The solubility test was repeated in three independent experiments.

T2 sequence (P43354 whole entry): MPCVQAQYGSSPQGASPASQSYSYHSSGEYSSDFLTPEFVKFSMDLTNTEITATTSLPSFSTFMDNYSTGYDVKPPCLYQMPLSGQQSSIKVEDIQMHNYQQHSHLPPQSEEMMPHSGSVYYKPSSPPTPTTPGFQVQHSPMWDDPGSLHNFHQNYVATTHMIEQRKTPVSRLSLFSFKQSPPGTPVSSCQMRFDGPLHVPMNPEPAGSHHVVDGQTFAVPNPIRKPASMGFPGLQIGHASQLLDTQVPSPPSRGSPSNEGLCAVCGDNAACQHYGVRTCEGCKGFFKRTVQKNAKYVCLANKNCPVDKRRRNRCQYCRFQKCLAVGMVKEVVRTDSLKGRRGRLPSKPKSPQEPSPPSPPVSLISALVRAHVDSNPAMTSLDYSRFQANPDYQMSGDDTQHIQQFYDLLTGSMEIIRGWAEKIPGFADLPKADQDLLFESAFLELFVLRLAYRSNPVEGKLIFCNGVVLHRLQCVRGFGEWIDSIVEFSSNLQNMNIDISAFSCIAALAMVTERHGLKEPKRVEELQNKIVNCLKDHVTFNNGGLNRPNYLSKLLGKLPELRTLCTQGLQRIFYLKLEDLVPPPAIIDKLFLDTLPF
T2 sequence (P19793 whole entry partner): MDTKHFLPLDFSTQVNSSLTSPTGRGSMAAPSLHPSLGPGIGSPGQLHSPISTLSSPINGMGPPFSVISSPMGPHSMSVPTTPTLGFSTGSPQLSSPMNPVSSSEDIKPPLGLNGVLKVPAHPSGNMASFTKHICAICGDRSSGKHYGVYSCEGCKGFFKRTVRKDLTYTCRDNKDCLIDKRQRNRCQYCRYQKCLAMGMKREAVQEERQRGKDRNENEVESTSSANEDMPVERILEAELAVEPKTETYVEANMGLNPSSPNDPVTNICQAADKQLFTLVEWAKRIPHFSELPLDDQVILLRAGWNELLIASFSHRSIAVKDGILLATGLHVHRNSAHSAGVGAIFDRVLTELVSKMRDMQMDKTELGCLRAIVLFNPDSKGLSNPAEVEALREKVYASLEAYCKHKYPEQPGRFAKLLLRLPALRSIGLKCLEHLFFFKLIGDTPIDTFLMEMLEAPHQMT
T3 sequence (P43354 360-595 limits assumed): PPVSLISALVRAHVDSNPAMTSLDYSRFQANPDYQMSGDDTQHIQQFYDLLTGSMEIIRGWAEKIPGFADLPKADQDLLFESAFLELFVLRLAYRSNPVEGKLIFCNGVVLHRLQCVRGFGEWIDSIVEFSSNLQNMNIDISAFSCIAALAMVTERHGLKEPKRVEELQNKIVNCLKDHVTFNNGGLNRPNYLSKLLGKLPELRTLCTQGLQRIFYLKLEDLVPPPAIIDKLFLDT

Row | Structure (SMILES) | EC50(NOR-1) (NOR-1) | SOD2 mRNA induction (mean) ([1]; 10 µM) | TH mRNA induction (mean) ([1]; 10 µM) | VMAT2 mRNA induction (mean) ([1]; 10 µM) | toxicity (WST-8) (HEK293T cells) | EC50(DR5) ([2]; Nurr1-RXR heterodimer, HEK293T, without bexarotene) | Kd (Nurr1 LBD) (Nurr1 LBD) | solubility at 24 h (Aqueous solubility) | EC50 (NOR-1) | SOD2 mRNA induction (mean) ([1]; 0.1 µM) | TH mRNA induction (mean) ([1]; 0.1 µM) | VMAT2 mRNA induction (mean) ([1]; 0.1 µM) | SOD2 mRNA induction (mean) ([1]; 0.3 µM) | TH mRNA induction (mean) ([1]; 0.3 µM) | VMAT2 mRNA induction (mean) ([1]; 0.3 µM) | rel. absorbance (450 nm) (HEK293T cells; HEK293T, 10 µM, WST-8, vs DMSO ctrl) | EC50 ([2]; EC50(DR5) [+0.1 µM BEX], Nurr1-RXR heterodimer, in presence of 0.1 µM bexarotene) | factor of potency enhancement by bexarotene (DR5) ([2]; EC50 with 0.1 µM BEX vs without) | EC50 ([2]; Nurr1-RXR heterodimer, HEK293T, without bexarotene, read-out: EC50(DR5)) | Kd (Nurr1 LBD)
1 | Cc1nc2c(Cl)cccn2c1NC(=O)c1ccc(-c2ccccc2)[nH]1 [Compound 29, N-(8-Chloro-2-methylimidazo[1,2-a]pyridin-3-yl)-5-phenyl-1H-pyrrole-2-carboxamide] | no activation (10 µM) | 1.131 fold | 1.042 fold | 0.9124 fold | inactive (10 µM) | no activation (10 µM) | no binding^b | 4.1 µg/mL (≈ 11.7 µM) | – | – | – | – | – | – | – | – | – | – | – | –
2 | Cc1nc2c(Cl)cccn2c1NC(=O)c1ccc(-c2ccc(N(C)C)cc2)o1 [Compound 36, N-(8-Chloro-2-methylimidazo[1,2-a]pyridin-3-yl)-5-(4-(dimethylamino)phenyl)furan-2-carboxamide] | – | – | – | – | no toxic effect; also recorded: non-toxic; also recorded: inactive (10 µM) | – | – | 6.8 µg/mL (≈ 17.2 µM) | 110 ± 30 nM | 1.308 fold | 1.414 fold | 1.925 fold | 1.894 fold | 1.603 fold | 1.791 fold | 85% and 95% and 80% | 32 nM | > 5 | 165 ± 4 nM | 170 nM

— PMC11217349, “Development of Nurr1 agonists from amodiaquine by scaffold hopping and fragment growing” (Communications Chemistry, 2024)
